# Numbers after ± are expanded uncertainties.
# Assays:
# [1] = for vapor or sublimation pressure: Liquid, Transpiration method
# [2] = Molar enthalpy of transition or fusion; conditions: Crystal; DSC
compound,measurement,setting,value
Cc1ccccc1-n1ccnc1 [1-(o-tolyl)-1H-imidazole],vapor or sublimation pressure,[1]; 313.3 K,0.00112 ± 8e-05 kPa
same,vapor or sublimation pressure,[1]; 318.2 K,0.00165 ± 0.00012 kPa
same,vapor or sublimation pressure,[1]; 323.2 K,0.00266 ± 0.00017 kPa
same,vapor or sublimation pressure,[1]; 328.2 K,0.00389 ± 0.00025 kPa
same,vapor or sublimation pressure,[1]; 333.2 K,0.00587 ± 0.00041 kPa
same,vapor or sublimation pressure,[1]; 338.1 K,0.00828 ± 0.00056 kPa
same,vapor or sublimation pressure,[1]; 343.1 K,0.01155 ± 0.00076 kPa
same,vapor or sublimation pressure,[1]; 348.1 K,0.01711 ± 0.0011 kPa
same,vapor or sublimation pressure,[1]; 353.1 K,0.02295 ± 0.0015 kPa
same,vapor or sublimation pressure,[1]; 358 K,0.03338 ± 0.0021 kPa
same,vapor or sublimation pressure,[1]; 363 K,0.04638 ± 0.0029 kPa
c1ccc(-n2ccnc2)cc1 [1-phenylimidazole],vapor or sublimation pressure,[1]; 298.7 K,0.00041 ± 4e-05 kPa
same,vapor or sublimation pressure,[1]; 308.6 K,0.00105 ± 7e-05 kPa
same,vapor or sublimation pressure,[1]; 313.5 K,0.00158 ± 0.0001 kPa
same,vapor or sublimation pressure,[1]; 318.4 K,0.00254 ± 0.00017 kPa
same,vapor or sublimation pressure,[1]; 319.1 K,0.00269 ± 0.00017 kPa
same,vapor or sublimation pressure,[1]; 323.5 K,0.00393 ± 0.00025 kPa
same,vapor or sublimation pressure,[1]; 328.5 K,0.00594 ± 0.00041 kPa
same,vapor or sublimation pressure,[1]; 333.7 K,0.00902 ± 0.00061 kPa
same,vapor or sublimation pressure,[1]; 338.4 K,0.01334 ± 0.00088 kPa
same,vapor or sublimation pressure,[1]; 343.2 K,0.01799 ± 0.0012 kPa
same,vapor or sublimation pressure,[1]; 348.2 K,0.02552 ± 0.0016 kPa
same,vapor or sublimation pressure,[1]; 353.1 K,0.03567 ± 0.0023 kPa
Brc1ccccc1-n1ccnc1 [2-bromo-phenyl-1H-imidazole],vapor or sublimation pressure,[1]; 343.2 K,0.00369 ± 0.00025 kPa
same,vapor or sublimation pressure,[1]; 348.2 K,0.00534 ± 0.00038 kPa
same,vapor or sublimation pressure,[1]; 353.2 K,0.00754 ± 0.00051 kPa
same,vapor or sublimation pressure,[1]; 358.1 K,0.01128 ± 0.00076 kPa
same,vapor or sublimation pressure,[1]; 363.1 K,0.01573 ± 0.001 kPa
same,vapor or sublimation pressure,[1]; 368 K,0.0218 ± 0.0014 kPa
same,vapor or sublimation pressure,[1]; 374 K,0.03122 ± 0.002 kPa
Fc1ccccc1-n1ccnc1 [2-fluoro-phenyl-1H-imidazole],vapor or sublimation pressure,[1]; 323.2 K,0.0041 ± 0.00028 kPa
same,vapor or sublimation pressure,[1]; 328.2 K,0.00615 ± 0.00043 kPa
same,vapor or sublimation pressure,[1]; 333.2 K,0.00892 ± 0.00061 kPa
same,vapor or sublimation pressure,[1]; 338.1 K,0.01364 ± 0.00091 kPa
same,vapor or sublimation pressure,[1]; 343.1 K,0.01948 ± 0.0013 kPa
same,vapor or sublimation pressure,[1]; 348.1 K,0.02761 ± 0.0018 kPa
same,vapor or sublimation pressure,[1]; 353.1 K,0.03781 ± 0.0024 kPa
same,vapor or sublimation pressure,[1]; 358.1 K,0.05311 ± 0.0034 kPa
same,vapor or sublimation pressure,[1]; 363 K,0.0745 ± 0.0047 kPa
same,vapor or sublimation pressure,[1]; 367.9 K,0.09597 ± 0.006 kPa
COc1ccccc1-n1ccnc1 [2-methoxy-phenyl-1H-imidazole],vapor or sublimation pressure,[1]; 333.2 K,0.00084 ± 7e-05 kPa
same,vapor or sublimation pressure,[1]; 338.3 K,0.00128 ± 9e-05 kPa
same,vapor or sublimation pressure,[1]; 343.1 K,0.00192 ± 0.00013 kPa
same,vapor or sublimation pressure,[1]; 348.1 K,0.00293 ± 0.0002 kPa
same,vapor or sublimation pressure,[1]; 353 K,0.00409 ± 0.00027 kPa
same,vapor or sublimation pressure,[1]; 358 K,0.00591 ± 0.00041 kPa
same,vapor or sublimation pressure,[1]; 362.9 K,0.00864 ± 0.00058 kPa
same,vapor or sublimation pressure,[1]; 367.9 K,0.01198 ± 0.00079 kPa
same,vapor or sublimation pressure,[1]; 374.2 K,0.01855 ± 0.0012 kPa
Brc1ccc(-n2ccnc2)cc1 [4-bromo-phenyl-1H-imidazole],vapor or sublimation pressure,[1]; 343.3 K,0.00037 ± 3e-05 kPa
same,vapor or sublimation pressure,[1]; 348.1 K,0.00065 ± 5e-05 kPa
same,vapor or sublimation pressure,[1]; 353 K,0.00103 ± 7e-05 kPa
same,vapor or sublimation pressure,[1]; 358.2 K,0.00174 ± 0.00012 kPa
same,vapor or sublimation pressure,[1]; 363.2 K,0.00273 ± 0.00018 kPa
same,vapor or sublimation pressure,[1]; 368.2 K,0.00467 ± 0.00031 kPa
same,vapor or sublimation pressure,[1]; 374.1 K,0.00773 ± 0.00053 kPa
same,Normal melting temperature,"[1]; Crystal, DTA",120.1 ± 1.1 °C
same,Molar enthalpy of transition or fusion,[2],6.84 ± 0.287 kcal/mol
Fc1ccc(-n2ccnc2)cc1 [4-fluoro-phenyl-1H-imidazole],vapor or sublimation pressure,[1]; 313 K,0.00108 ± 7e-05 kPa
same,vapor or sublimation pressure,[1]; 318.4 K,0.00166 ± 0.00012 kPa
same,vapor or sublimation pressure,[1]; 323.3 K,0.00268 ± 0.00018 kPa
same,vapor or sublimation pressure,[1]; 328.2 K,0.00401 ± 0.00027 kPa
same,vapor or sublimation pressure,[1]; 333.2 K,0.00563 ± 0.0004 kPa
same,vapor or sublimation pressure,[1]; 335.7 K,0.00702 ± 0.00048 kPa
same,vapor or sublimation pressure,[1]; 338.2 K,0.00834 ± 0.00056 kPa
same,vapor or sublimation pressure,[1]; 340.7 K,0.01004 ± 0.00068 kPa
same,vapor or sublimation pressure,[1]; 343.2 K,0.01191 ± 0.00079 kPa
same,vapor or sublimation pressure,[1]; 345.6 K,0.01481 ± 0.00098 kPa
same,vapor or sublimation pressure,[1]; 348.2 K,0.01727 ± 0.0011 kPa
same,vapor or sublimation pressure,[1]; 353.1 K,0.02449 ± 0.0016 kPa
same,vapor or sublimation pressure,[1]; 358.2 K,0.03573 ± 0.0023 kPa
same,vapor or sublimation pressure,[1]; 363.2 K,0.04969 ± 0.0032 kPa
same,vapor or sublimation pressure,[1]; 368.1 K,0.06685 ± 0.0042 kPa
same,vapor or sublimation pressure,[1]; 373.1 K,0.09256 ± 0.0058 kPa
COc1ccc(-n2ccnc2)cc1 [4-methoxy-phenyl-1H-imidazole],vapor or sublimation pressure,[1]; 333.4 K,0.00061 ± 5e-05 kPa
same,vapor or sublimation pressure,[1]; 338.2 K,0.00094 ± 7e-05 kPa
same,vapor or sublimation pressure,[1]; 343.3 K,0.00147 ± 0.0001 kPa
same,vapor or sublimation pressure,[1]; 348.2 K,0.00215 ± 0.00015 kPa
same,vapor or sublimation pressure,[1]; 353.3 K,0.00328 ± 0.00022 kPa
same,vapor or sublimation pressure,[1]; 358.3 K,0.00469 ± 0.0003 kPa
same,vapor or sublimation pressure,[1]; 363.3 K,0.00695 ± 0.00048 kPa
same,vapor or sublimation pressure,[1]; 368.2 K,0.00969 ± 0.00066 kPa
same,vapor or sublimation pressure,[1]; 373.2 K,0.01433 ± 0.00093 kPa
Cc1ccc(-n2ccnc2)cc1 [4-methyl-phenyl-1H-imidazole],vapor or sublimation pressure,[1]; 328.3 K,0.00266 ± 0.00018 kPa
same,vapor or sublimation pressure,[1]; 333 K,0.00399 ± 0.00025 kPa
same,vapor or sublimation pressure,[1]; 338.1 K,0.00603 ± 0.00043 kPa
same,vapor or sublimation pressure,[1]; 340.8 K,0.00739 ± 0.00051 kPa
same,vapor or sublimation pressure,[1]; 345.7 K,0.01103 ± 0.00074 kPa
same,vapor or sublimation pressure,[1]; 350.7 K,0.01582 ± 0.001 kPa
same,vapor or sublimation pressure,[1]; 355.7 K,0.02204 ± 0.0014 kPa
same,vapor or sublimation pressure,[1]; 360.7 K,0.0313 ± 0.002 kPa
same,vapor or sublimation pressure,[1]; 365.6 K,0.04264 ± 0.0027 kPa
same,vapor or sublimation pressure,[1]; 370.6 K,0.0608 ± 0.0038 kPa
same,vapor or sublimation pressure,[1]; 375.3 K,0.07866 ± 0.0049 kPa

# Source: the NIST ThermoML archive (doi:10.1016/j.fluid.2016.11.010)
